# Source: ChEMBL document CHEMBL5252531, “2015 Philip S. Portoghese Medicinal Chemistry Lectureship. Curing Hepatitis C Virus Infection with Direct-Acting Antiviral Agents: The Arc of a Medicinal Chemistry Triumph” (J Med Chem, 2016)
# How the values were obtained:
# [1] = Cytotoxicity against human HEK293 cells assessed as reduction in cell viability […] after 72 hrs by alamar blue assay; format: toxicity, cell-based
# HeLa = assay: Cytotoxicity against human HeLa cells assessed as reduction in cell viability measured after 72 hrs by Alamar blue assay; format: functional
# [2] = system: Respiratory syncytial virus; assay: Antiviral activity against RSV; format: functional, organism-based; conditions: human respiratory syncytial virus
# [3] = Cytotoxicity against human MRC5 cells assessed as reduction in cell viability measured after 72 hrs by alamar blue assay; format: toxicity, cell-based
# [4] = system: Human immunodeficiency virus 1; assay: Antiviral activity against HIV-1; format: functional, organism-based
# Hepatitis C virus [5] = assay: Antiviral activity against HCV GT1b-genotype assessed as inhibition of viral replication; format: functional, organism-based, Hepacivirus hominis
# [6] = system: Bovine viral diarrhea virus 1; assay: Antiviral activity against Bovine viral diarrhea virus 1 infected in MDBK cells assessed as reduction in viral replication; format: functional, organism-based; conditions: Bovine viral diarrhea virus isolates and strains
# Human rhinovirus sp. = assay: Antiviral activity against HRV; format: functional, organism-based
# Huh-7 = assay: Cytotoxicity against human Huh-7 cells assessed as reduction in cell viability […] after 72 hrs by alamar blue assay; format: functional
# [7] = system: Bovine viral diarrhea virus 1; assay: Antiviral activity against Bovine viral diarrhea virus 1; format: functional, organism-based; conditions: Bovine viral diarrhea virus isolates and strains
# [8] = Cytotoxicity against human MT2 cells assessed as cell viability measured after 72 hrs by MTT assay; format: toxicity, cell-based
# [9] = Cytotoxicity against African green monkey Vero cells assessed as reduction in cell viability […] after 72 hrs by alamar blue assay; format: toxicity, cell-based; conditions: chlorocebus sabaeus
# Hepatitis C virus [10] = assay: Antiviral activity against HCV genotype 1b expressing NS5B S365A mutant variant; format: functional, organism-based, Hepacivirus hominis
# Hepatitis C virus [11] = assay: Antiviral activity against HCV genotype 1b; format: functional, organism-based, Hepacivirus hominis
# [12] = Oral bioavailability in rat at 3 mg/kg; format: ADME, organism-based; conditions: in vivo
# Hepatitis C virus [13] = assay: Antiviral activity against HCV genotype 1a; format: functional, organism-based, Hepacivirus hominis
# [14] = AUC in FVB mouse at 5 mg/kg, po measured after 24 hrs by LC-MS/MS analysis; format: ADME, organism-based; parameters: dose 5 mg/kg, time 24 hrs, route po; conditions: in vivo
# Hepatitis C virus [15] = assay: Inhibition of HCV genotype 1b; format: functional, organism-based, Hepacivirus hominis
# in vivo [16] = conditions: beagle, dog, iv, 1 mg/kg
# Description: Half life in Beagle dog at 1 mg/kg, iv measured after 24 hrs by HPLC method
# in vivo [17] = conditions: FVB, mouse, iv, 2 mg/kg
# Description: Half life in FVB mouse at 2 mg/kg, iv measured after 24 hrs by HPLC method
# in vivo [18] = conditions: male, Sprague-Dawley, rat, po, 15 mg/kg
# Hepatitis C virus [19] = assay: Inhibition of HCV genotype 1a; format: functional, organism-based, Hepacivirus hominis
# [20] = Drug concentration in cynomolgus monkey liver at 10 mg/kg, po measured after 24 hrs by LC-MS/MS analysis; format: ADME, organism-based, Macaca fascicularis; conditions: read-out: Ct
# [21] = Drug concentration in Beagle dog plasma at 6 mg/kg, po measured after 24 hrs by LC-MS/MS analysis; format: ADME, organism-based, Canis lupus familiaris
# Hepatitis C virus [22] = assay: Inhibition of HCV genotype 4a; format: functional, organism-based, Hepacivirus hominis
# [23] = AUC in cynomolgus monkey at 3mg/kg, po measured after 24 hrs by LC-MS/MS analysis; format: ADME, organism-based, Macaca fascicularis; parameters: time 24 hrs, route po; conditions: in vivo
# [24] = Drug concentration in Sprague-Dawley rat plasma at 15 mg/kg, po measured after 24 hrs by LC-MS/MS analysis; format: ADME, organism-based
# Hepatitis C virus [25] = assay: Antiviral activity against HCV genotype 4a; format: functional, organism-based, Hepacivirus hominis
# Hepatitis C virus [26] = assay: Inhibition of HCV genotype 2a; format: functional, organism-based, Hepacivirus hominis
# [27] = AUC in Sprague-Dawley rat at 15 mg/kg, po measured after 24 hrs by LC-MS/MS analysis; format: ADME, organism-based; parameters: dose 15 mg/kg, time 24 hrs, route po; conditions: in vivo
# Hepatitis C virus [28] = assay: Inhibition of HCV genotype 6a; format: functional, organism-based, Hepacivirus hominis
# Hepatitis C virus [29] = assay: Inhibition of HCV genotype 5a; format: functional, organism-based, Hepacivirus hominis
# in vivo [30] = conditions: cynomolgus monkey, iv, 1 mg/kg
# Description: Half life in cynomolgus monkey at 1 mg/kg, iv measured after 24 hrs by HPLC method
# in vivo [31] = conditions: FVB, mouse, po, 5 mg/kg
# [32] = Drug concentration in FVB mouse liver at 5 mg/kg, po measured after 24 hrs by LC-MS/MS analysis; format: ADME, organism-based; conditions: read-out: Ct
# Hepatitis C virus [33] = assay: Antiviral activity against Hepatitis C virus infected RNA assessed as reduction in viral replication at 200 mg, po BID measured for 3 days; format: functional, Hepacivirus hominis; conditions: time 3 day
# Hepatitis C virus [34] = assay: Antiviral activity against Hepatitis C virus infected RNA assessed as reduction in viral replication at 600 mg, po BID measured for 3 days; format: functional, Hepacivirus hominis; conditions: time 3 day
# Hepatitis C virus [35] = assay: Antiviral activity against Hepatitis C virus infected RNA assessed as reduction in viral replication at 400 mg, po BID measured for 3 days; format: functional, Hepacivirus hominis; conditions: time 3 day
# in vivo [36] = conditions: Sprague-Dawley, rat, iv, 5 mg/kg
# Description: Half life in Sprague-Dawley rat at 5 mg/kg, iv measured after 24 hrs by HPLC method
# in vivo [37] = conditions: cynomolgus monkey, po, 3 mg/kg
# Hepatitis C virus [38] = assay: Inhibition of HCV genotype 2b; format: functional, organism-based, Hepacivirus hominis
# Hepatitis C virus [39] = assay: Antiviral activity against HCV genotype 2a; format: functional, organism-based, Hepacivirus hominis
# Hepatitis C virus [40] = assay: Inhibition of HCV genotype 3a; format: functional, organism-based, Hepacivirus hominis
# Hepatitis C virus [41] = assay: Antiviral activity against HCV genotype 3a; format: functional, organism-based, Hepacivirus hominis
# [42] = Drug concentration in Sprague-Dawley liver at 15 mg/kg, po measured after 24 hrs by LC-MS/MS analysis; format: ADME, organism-based; conditions: rat, read-out: Ct
# [43] = AUC in Beagle dog at 3 mg/kg, po measured after 24 hrs by LC-MS/MS analysis; format: ADME, organism-based, Canis lupus familiaris; parameters: dose 3 mg/kg, time 24 hrs, route po; conditions: in vivo
# [44] = Drug concentration in Beagle dog liver at 6 mg/kg, po measured after 24 hrs by LC-MS/MS analysis; format: ADME, organism-based, Canis lupus familiaris; conditions: read-out: Ct
# Hepatitis C virus [45] = assay: Antiviral activity against HCV genotype 1b by replicon assay; format: functional, organism-based, Hepacivirus hominis
# [46] = target: T1, Hepatitis C virus serine protease, NS3/NS4A (Hepatitis C virus, UniProt A3EZI9+D2K2A8); assay: Inhibition of C-terminal HCV NS4A-NS3 protease; format: protein-complex assay, Hepacivirus hominis
# Hepatitis C virus [47] = assay: Antiviral activity against Hepatitis C virus; format: functional, organism-based, Hepacivirus hominis
# [48] = Oral bioavailability in rat plasma; format: ADME, organism-based; conditions: in vivo
# [49] = target: T1, Hepatitis C virus serine protease, NS3/NS4A; assay: Inhibition of HCV NS4A-NS3 protease; format: protein-complex assay, Hepacivirus hominis
# Hepatitis C virus [50] = assay: Antiviral activity against HCV GT1b-genotype assessed as viral growth inhibition measured after 24 hrs; format: functional, organism-based, Hepacivirus hominis; conditions: Hepatitis C virus, GT1b-genotype, 24 h
# Hepatitis C virus [51] = assay: Antiviral activity against HCV GT1a-genotype assessed as inhibition of viral replication; format: functional, organism-based, Hepacivirus hominis
# [52] = Solubility in water at pH 7; format: physicochemical
# T1 sequence (D2K2A8 whole entry): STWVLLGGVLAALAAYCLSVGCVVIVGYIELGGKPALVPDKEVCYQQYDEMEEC
# T1 sequence (A3EZI9 whole entry): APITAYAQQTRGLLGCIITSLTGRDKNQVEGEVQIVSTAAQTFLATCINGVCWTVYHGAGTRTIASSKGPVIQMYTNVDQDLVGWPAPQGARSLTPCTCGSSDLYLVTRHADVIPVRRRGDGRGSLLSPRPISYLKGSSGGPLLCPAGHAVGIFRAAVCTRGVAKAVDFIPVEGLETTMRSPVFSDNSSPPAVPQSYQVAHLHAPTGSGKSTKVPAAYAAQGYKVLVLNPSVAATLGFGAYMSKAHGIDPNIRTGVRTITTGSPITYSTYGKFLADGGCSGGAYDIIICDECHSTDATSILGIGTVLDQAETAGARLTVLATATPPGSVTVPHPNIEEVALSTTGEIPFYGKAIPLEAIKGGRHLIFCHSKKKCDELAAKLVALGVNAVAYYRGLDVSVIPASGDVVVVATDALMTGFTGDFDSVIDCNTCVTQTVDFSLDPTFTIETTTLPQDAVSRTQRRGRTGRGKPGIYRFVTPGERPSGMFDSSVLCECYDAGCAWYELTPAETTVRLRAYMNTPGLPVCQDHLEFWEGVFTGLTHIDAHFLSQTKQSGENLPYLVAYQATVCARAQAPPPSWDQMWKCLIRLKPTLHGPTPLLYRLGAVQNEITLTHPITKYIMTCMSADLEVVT
smiles,measurement,setting,value
C[C@H](NC(=O)OCc1ccccc1)C(=O)Nc1ccc(C2S/C(=N\c3cccc(F)c3)N(Cc3ccco3)C2=O)cc1 (some centres not stated),CC50 at 72 h,[1],> 50000 nM
same,CC50,HeLa,> 100000 nM
same,EC50,[2],23000 nM
same,CC50 at 72 h,[3],41000 nM
same,EC50,[4],41000 nM
same,EC50,Hepatitis C virus [5],570 nM
same,EC50,[6],24000 nM
same,EC50,Human rhinovirus sp.,> 100000 nM
same,CC50,Huh-7,> 100000 nM
same,EC50,[7],17000 nM
same,CC50 at 72 h,[8],23000 nM
same,CC50 at 72 h,[9],> 150000 nM
O=C(O)/C=C/c1ccc(NC(=O)C2(NC(=O)c3ccc4c(C5CCCCC5)c5n(c4c3)CC(=O)Nc3ccccc3-5)CCCC2)cc1,EC50,Hepatitis C virus [10],8 nM
O=C1Cn2c(c(C3CCCCC3)c3ccc(C(=O)O)cc32)-c2ccccc2N1,EC50,Hepatitis C virus [11],< 10 nM
same,bioavailability,[12],17%
same,EC50,Hepatitis C virus [13],< 10 nM
same,EC50,Hepatitis C virus [10],170 nM
C=C[C@@H]1C[C@]1(NC(=O)[C@@H]1C[C@@H](Oc2ncc(OC)c3ccc(Cl)cc23)CN1C(=O)[C@@H](NC(=O)OC(C)(C)C)C(C)(C)C)C(=O)NS(=O)(=O)C1CC1,EC50,Hepatitis C virus [11],1.2 nM
same,AUC at 24 h,[14],0.54 µM·h
same,IC50,Hepatitis C virus [15],0.3 nM
same,half-life at 24 h,in vivo [16],1 h
same,half-life at 24 h,in vivo [17],4.6 h
same,bioavailability,in vivo [18],14%
same,IC50,Hepatitis C virus [19],0.7 nM
same,concentration at 24 h,[20],440 nM
same,concentration at 24 h,[21],6 nM
same,IC50,Hepatitis C virus [22],1.6 nM
same,AUC at 24 h,[23],0.41 µM·h
same,concentration at 24 h,[24],40 nM
same,EC50,Hepatitis C virus [25],1.8 nM
same,IC50,Hepatitis C virus [26],15 nM
same,AUC at 24 h,[27],1 µM·h
same,IC50,Hepatitis C virus [28],0.9 nM
same,IC50,Hepatitis C virus [29],1.7 nM
same,half-life at 24 h,in vivo [30],1.3 h
same,bioavailability,in vivo [31],28%
same,concentration at 24 h,[32],710 nM
same,Activity,Hepatitis C virus [33],3.09 log10 IU/mL
same,Activity,Hepatitis C virus [34],2.84 log10 IU/mL
same,Activity,Hepatitis C virus [35],3.57 log10 IU/mL
same,half-life at 24 h,in vivo [36],4.2 h
same,bioavailability,in vivo [37],11%
same,IC50,Hepatitis C virus [38],78 nM
same,EC50,Hepatitis C virus [39],230 nM
same,IC50,Hepatitis C virus [40],320 nM
same,EC50,Hepatitis C virus [41],1160 nM
same,concentration at 24 h,[42],1200 nM
same,AUC at 24 h,[43],2.2 µM·h
same,concentration at 24 h,[44],2500 nM
O=C(Nc1ccc(/C=C/c2ccc(NC(=O)[C@@H]3CCCN3C(=O)CC3CC3)cc2)cc1)[C@@H]1CCCN1C(=O)CC1CC1,EC50,Hepatitis C virus [11],62 nM
C=C[C@@H]1C[C@]1(NC(=O)[C@@H]1C[C@@H](Oc2cc(-c3ccccc3)nc3cc(OC)ccc23)CN1C(=O)[C@@H](NC(=O)OC(C)(C)C)C(C)(C)C)C(=O)O,IC50,Hepatitis C virus [19],54 nM
same,EC50,Hepatitis C virus [45],550 nM
COc1ccc2c(O[C@@H]3C[C@H]4C(=O)N[C@]5(C(=O)O)C[C@H]5/C=C\CCCCC[C@H](NC(=O)OC(C)(C)C)C(=O)N4C3)cc(-c3ccccc3)nc2c1,IC50,[46],11 nM
same,EC50,Hepatitis C virus [47],1.2 nM
same,F,[48],42%
same,IC50,[49],3 nM
CN(C)S(=O)(=O)NC(=O)c1ccc2c(C3CCCCC3)c3n(c2c1)C[C@@]1(C(=O)N2CCOCC2)C[C@H]1c1ccccc1-3,EC50,Hepatitis C virus [50],51 nM
same,EC50,Hepatitis C virus [51],41 nM
O=C(O)c1ccc2c(C3CCCCC3)c3n(c2c1)CC(C(=O)N1CCOCC1)=Cc1ccccc1-3,EC50,Hepatitis C virus [50],359 nM
same,EC50,Hepatitis C virus [51],404 nM
CN(C)S(=O)(=O)NC(=O)c1ccc2c(C3CCCCC3)c3n(c2c1)CC(C(=O)N1CCOCC1)=Cc1ccccc1-3,EC50,Hepatitis C virus [50],148 nM
same,solubility,[52],< 1 µg/mL
same,EC50,Hepatitis C virus [51],119 nM
COc1ccc2c(c1)C=C(C(=O)N1CCOCC1)Cn1c-2c(C2CCCCC2)c2ccc(C(=O)NS(=O)(=O)N(C)C)cc21,EC50,Hepatitis C virus [50],62 nM
same,EC50,Hepatitis C virus [51],61 nM
CN(C)S(=O)(=O)NC(=O)c1ccc2c(C3CCCCC3)c3n(c2c1)C[C@]1(C(=O)N2CCOCC2)C[C@@H]1c1ccccc1-3,EC50,Hepatitis C virus [50],336 nM
same,EC50,Hepatitis C virus [51],472 nM
